We go through seven compounds from patent US9409952B2, “Peptide-compound cyclization method” (Chugai Seiyaku Kabushiki Kaisha, priority 2011, dated 2016).

Starred links: 1 amine or outer side, 2 acyl side, 3 side chain; linkers in the order of their positions; H or OH if unused. Positions of bridges follow the written chain, without caps; N, C: chain ends. Non-standard residues stand in square brackets, D forms with d. Residues, ends and D or L forms follow the SMILES beside them. *: point of attachment. Cys(O)(CH2CO) = O=C([C@H](C[S+]([O-])CC(=O)[*:3])N[*:1])[*:2]; NMeF = CN[C@@H](Cc1ccccc1)C(=O)O; NMeI = CC[C@H](C)[C@H](NC)C(=O)O; NMeL = CN[C@@H](CC(C)C)C(=O)O; NMeV = CN[C@H](C(=O)O)C(C)C; NMeA = CN[C@@H](C)C(=O)O; Piperidide = C1CCN(*)CC1; Sar = CNCC(=O)O; tBu = CC(C)(C)*

Series [1] can be described thus: Metabolic stability in mouse hepatic microsome. It counts as in vitro ADME. The settings on record: male, mouse, liver microsomes, pH 7.4; Table 9, thioether versus sulfoxide; read-out: Mouse Hepatic Microsome CLh, int. As for the experimental part:
The obtained compound was metabolically reacted at a concentration of 2 uM with mouse serum (male/female mixed, Valley Biomedical, USA) (adjusted to pH 7.4 with 33.5 mM HEPES buffer) for two hours. Deproteinization treatment with acetonitrile was provided over time, the amount of the remaining unchanged compound was analyzed using LC/MS, and the metabolic half-life (t1/2) was calculated. A microsome solution prepared at 0.5 mg protein/mL from mouse hepatic microsome and small intestinal microsome (male, XENOTECH, USA) using 100 mM phosphate buffer (pH 7.4) was metabolically reacted with the compound at a concentration of 1 uM for 30 minutes in the presence or absence of NADPH. Deproteinization treatment with acetonitrile was provided over time, the amount of the remaining unchanged compound was analyzed using LC/MS, and the hepatic-intrinsic clearance (CLh, int) and the small intestinal-intrinsic clearance (CLg, int) were calculated (Table 7). Such peptides were sufficiently slowly metabolized by hydrolysis with peptidases or the like in mouse sera and microsomes, contrary to peptides composed of natural amino acids having low lipophilicity.
Metabolic stability tests were carried out in the same manner as shown in 2-1.

Series [2] is described as follows: PAMPA (parallel artificial membrane permeability assay). The class given is in vitro ADME. The settings on record: PAMPA, pH 6.5. In outline:
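Artificial membrane was 10% (w/v) egg lecithin plus 0.5% (w/v) cholesterol in dodecane on a PVDF filter. A 10 mM DMSO stock was added at 0.5% (v/v) to donor buffer (50 mM MOPSO, pH 6.5, 5.0% glycocholic acid). After 18 h at 37 °C, LC/MS or LC/UV gave donor and acceptor levels for Pe.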

The nature of series [3]: Metabolic stability in human hepatic microsome. It counts as in vitro ADME. The settings on record: human, microsomes, pH 7.4, CL NADPH(+).
A further series is described as follows: in vivo. The settings on record: male, C57BL/6J, mouse, 20 mg/kg.
Series [4] is described as follows: Stability of aminoacylated pdCpA in buffers and on storage (LC-MS). The settings on record: for % by LC-MS during StBu deprotection: 250 μM Compound 2n-A, 50 mM Tris-HCl pH 7, 10 mM DTT. The class given is physicochemical. On the procedure:
The side chain StBu of pdCpA-Cys was deprotected using the precursor Compound 2n-A, and the following experiment was carried out to examine stability of the deprotected Compound 2e-A. The side chain was deprotected at room temperature under the conditions of 250 μM of Compound 2n-A, 50 mM Tris-HCl buffer, pH 7, and 10 mM DTT, and the time course of the deprotection was observed by LC-MS (SQD). The intended Compound 2e-A was not observed, and pdCpA resulting from hydrolysis of pdCpA-Cys was observed. After 5 minutes, Compound 2n-A was 51%, Compound 2e-A was 0%, and pdCpA was 49%. After 2 hours, deprotection was completed and Compound 2n-A was 0%, but Compound 2e-A was 0% and all hydrolized so that pdCpA was 100% (FIG. 13).
Stability of Compound 2n-A with the SH group of Cys protected was evaluated. Storage samples were prepared under five conditions as shown in the following Table 2 were prepared, respectively, and analyzed by LC-MS.
Stability of Compound 2n-B with the SH group of MeCys protected was also evaluated. Storage samples were prepared under four conditions as shown in the following Table 3 were prepared and analyzed by LC-MS.

The mark [5] stands for this setting: pdCpA-MeCys(StBu): In AcONa buffer, 1 mM, pH 5, room temperature, 5 hours.
The mark [6] stands for this setting: pdCpA-MeCys(StBu): In DMSO, 5 mM, pH 4, 0° C., 1 day.
The mark [7] stands for this setting: pdCpA-MeCys(StBu): In HEPES buffer, 1 mM, pH 7, room temperature, 1 hour.
[8] abbreviates: pdCpA-MeCys(StBu): In Tris buffer, 1 mM, pH 7, room temperature, 1 hour.

Regarding `CC[C@H](C)[C@H]1C(=O)N[C@H](C(=O)N2CCCCC2)C[S+]([O-])CC(=O)N(C)[C@@H](Cc2ccccc2)C(=O)N(C)[C@@H](C)C(=O)N(C)[C@@H](Cc2ccccc2)C(=O)N(C)[C@@H](CC(C)C)C(=O)N[C@@H]([C@@H](C)O)C(=O)N(C)CC(=O)N(C)[C@@H](CC(C)C)C(=O)N[C@@H](COC(C)(C)C)C(=O)N1C` (stereo partly drawn) [Compound P-116, (5S,8S,11S,14S,17S,23S,26S,29S,32R)-5,11-dibenzyl-26-(tert-butoxymethyl)-29-((S)-sec-butyl)-17-((R)-1-hydroxyethyl)-14,23-diisobutyl-4,7,8,10,13,19,22,28-octamethyl-32-(piperidine-1-carbonyl)-1-thia-4,7,10,13,16,19,22,25,28,31-decaazacyclotritriacontane-3,6,9,12,15,18,21,24,27,30-decone 1-oxide] ([NMeF][NMeA][NMeF][NMeL]T[Sar][NMeL]S(tBu)[NMeI][Cys(O)(CH2CO)]-Piperidide; lactam N-10), in series [1], the microsomal CLint at 1 uM came out at 56.5 µL/min/mg.
As usually defined, the Papp is the rate of passage across a membrane or cell layer, normalised by area and donor concentration. The AUC is concentration integrated over time. Low values mean less exposure, high ones more exposure. Broadly, the Vd is the apparent volume that relates the amount in the body to the concentration in plasma or blood. Low values mean confinement near the circulation, high ones extensive tissue distribution. What is called clearance is the volume of plasma or blood freed of the substance per unit of time. Broadly, the half-life is the time needed for the level to fall by half in the phase considered. A word on the CL/F: it is the apparent clearance, not corrected for the fraction that reaches the circulation. Usually Cmax stands for the peak of the concentration-time curve. By Tmax is commonly meant the time from dosing to the highest level. One may read the bioavailability as the share of a dose that reaches the circulation, judged against a reference dose that is usually intravenous. `CC(C)C[C@H]1C(=O)N2CCC[C@H]2C(=O)N(C)[C@@H](CC(C)C)C(=O)N[C@@H](C)C(=O)N(C)[C@@H](C(C)C)C(=O)N[C@H](C(=O)N2CCCCC2)CC(=O)N(C)[C@@H](C)C(=O)N[C@@H]([C@@H](C)O)C(=O)N(C)CC(=O)N(C)[C@@H](Cc2ccccc2)C(=O)N(C)[C@@H](Cc2ccccc2)C(=O)N1C` [DP-67] ([NMeA]T[Sar][NMeF][NMeF][NMeL]P[NMeL]A[NMeV]D-Piperidide; lactam N-11) gave an apparent permeability (Papp) at 18 hours, 50 µM in series [2] of 23 ×10⁻⁶ cm/s. The compound further had a microsomal CLint at 1 uM in series [3] of 15 µL/min/mg. In addition, in the series “in vivo” (iv), the exposure (AUC) worked out at 70700 ng·h/mL, the C0 stood at 102 µg/mL, the Vd came out at 0.431 L/kg and the clearance came out at 4.74 mL/min/kg. The compound further showed a half-life in the series “in vivo” (iv) of 3.25 h. Also, in the series “in vivo” (po), the AUC was 10900 ng·h/mL, the CL/F was determined as 37.9 mL/min/kg, the Cmax amounted to 2.31 µg/mL and the time of peak concentration (Tmax) worked out at 3.5 h. In “in vivo” (po), this compound had a bioavailability of 15.5% and a half-life of 4.36 h.
`CN[C@@H](CSSC(C)(C)C)C(=O)O[C@H]1[C@@H](O)[C@H](n2cnc3c(N)ncnc32)O[C@@H]1COP(=O)(O)O[C@H]1C[C@H](n2ccc(N)nc2=O)O[C@@H]1COP(=O)(O)O` [pdCpA-MeCys(StBu), (2R)-(2R,3S,4R,5R)-2-((((((2R,3S,5R)-5-(4-amino-2-oxopyrimidin-1(2H)-yl)-2-((phosphonooxy)methyl)tetrahydrofuran-3-yl)oxy)(hydroxy)phosphoryl)oxy)methyl)-5-(6-amino-9H-purin-9-yl)-4-hydroxytetrahydrofuran-3-yl 3-(tert-butyldisulfanyl)-2-(methylamino)propanoate]: the “% remaining by LC-MS” value in series [4] (setting [5]) was 100%; in series [4] (setting [6]), 100%; in series [4] (setting [7]), 49%; in series [4] (setting [8]) it was 35%.
Consider `Nc1ccn([C@H]2C[C@H](OP(=O)(O)OC[C@H]3O[C@@H](n4cnc5c(N)ncnc54)[C@H](O)[C@@H]3O)[C@@H](COP(=O)(O)O)O2)c(=O)n1` [pdCpA, ((2R,3S,5R)-5-(4-amino-2-oxopyrimidin-1(2H)-yl)-3-(((((2R,3S,4R,5R)-5-(6-amino-9H-purin-9-yl)-3,4-dihydroxytetrahydrofuran-2-yl)methoxy)(hydroxy)phosphoryl)oxy)tetrahydrofuran-2-yl)methyl dihydrogenphosphate, reference compound], for which the “% by LC-MS during StBu deprotection” value in series [4] (room temperature, after 5 minutes) amounted to 49%; in series [4] (room temperature, after 2 hours), 100%. Besides, the “% remaining by LC-MS” value in series [4] (In AcONa buffer, 1 mM, pH 5, room temperature, 1 hour) came out at 30%; in series [4] (In DMSO, 5 mM, pH 4, 0° C., 2.5 days), 42%; in series [4] (In HEPES buffer, 1 mM, pH 7, room temperature, 1 hour), 70%; in series [4] (Stored as solid, room temperature, 16 days) it was 36%; in series [4] (setting [5]), 0%; in series [4] (setting [6]), 0%. For the same compound, the “% remaining by LC-MS” value in series [4] (setting [7]) is 51%; in series [4] (setting [8]) it was 65%.
The compound `CC[C@H](C)[C@H]1C(=O)N[C@@H]([C@@H](C)O)C(=O)N(C)CC(=O)N(C)[C@@H](CC(C)C)C(=O)N[C@H](C(=O)N2CCCCC2)CC(=O)N(C)[C@@H](C)C(=O)N[C@@H](CC(C)C)C(=O)N(C)[C@@H](CC(C)C)C(=O)N(C)[C@@H](Cc2ccccc2)C(=O)N[C@@H](C)C(=O)N(C)[C@@H](Cc2ccccc2)C(=O)N1C` [DP-101] ([NMeA]L[NMeL][NMeF]A[NMeF][NMeI]T[Sar][NMeL]D-Piperidide; lactam N-11) showed an apparent permeability coefficient (Papp) at 18 hours, 50 µM in series [2] of 56 ×10⁻⁶ cm/s. Further, the microsomal CLint at 1 uM in series [3] was determined as 101 µL/min/mg. In the series “in vivo” (iv), this compound returned an area under the curve (AUC) of 83300 ng·h/mL, a C0 of 112 µg/mL, a Vd of 0.455 L/kg and a clearance of 4.01 mL/min/kg. The same compound showed a half-life in the series “in vivo” (iv) of 1.91 h. Moreover, in “in vivo” (po), the area under the curve (AUC) amounted to 12700 ng·h/mL, the CL/F came out at 26.2 mL/min/kg, the concentration peaked (Cmax) at 2.32 µg/mL and the Tmax stood at 1.83 h. Moreover, in “in vivo” (po), the bioavailability came out at 15.2% and the half-life is 2.27 h.
For `CC[C@H](C)[C@H]1C(=O)N[C@@H](COC(C)(C)C)C(=O)N(C)[C@@H](Cc2ccccc2)C(=O)N(C)[C@@H](C(C)C)C(=O)N[C@H](C(=O)N2CCCCC2)CC(=O)N(C)[C@@H](C)C(=O)N(C)[C@@H](Cc2ccccc2)C(=O)N[C@@H](CC(C)C)C(=O)N(C)[C@@H](CC(C)C)C(=O)N[C@@H]([C@@H](C)O)C(=O)N(C)CC(=O)N1C` [DP-47] ([NMeA][NMeF]L[NMeL]T[Sar][NMeI]S(tBu)[NMeF][NMeV]D-Piperidide; lactam N-11), in series [2], the Papp at 18 hours, 50 µM was 50 ×10⁻⁶ cm/s. Besides, the microsomal CLint at 1 uM in series [3] was determined as 37 µL/min/mg. Also, in “in vivo” (iv), the AUC was 202000 ng·h/mL, the C0 is 107 µg/mL, the Vd worked out at 0.381 L/kg and the clearance stood at 1.66 mL/min/kg. The half-life in “in vivo” (iv) is 2.68 h. Also, in the series “in vivo” (po), the area under the curve (AUC) was 38000 ng·h/mL, the CL/F is 8.86 mL/min/kg, the peak level (Cmax) was 4.49 µg/mL and the Tmax was 2.67 h. In “in vivo” (po), this compound showed a bioavailability of 18.8% and a half-life of 3.88 h.
For the compound `CC[C@H](C)[C@H]1C(=O)N[C@H](C(=O)N2CCCCC2)C[S+]([O-])CC(=O)N(C)[C@@H](C)C(=O)N[C@@H](Cc2ccccc2)C(=O)N(C)[C@@H](CC(C)C)C(=O)N[C@@H]([C@@H](C)O)C(=O)N(C)CC(=O)N(C)[C@@H](CC(C)C)C(=O)N[C@@H](COC(C)(C)C)C(=O)N1C` (stereo partly drawn) [Compound P-117, (5S,8S,11S,14S,20S,23S,26S,29R)-8-benzyl-23-(tert-butoxymethyl)-26-((S)-sec-butyl)-14-((R)-1-hydroxyethyl)-11,20-diisobutyl-4,5,10,16,19,25-hexamethyl-29-(piperidine-1-carbonyl)-1-thia-4,7,10,13,16,19,22,25,28-nonaazacyclotriacontane-3,6,9,12,15,18,21,24,27-nonone 1-oxide] ([NMeA]F[NMeL]T[Sar][NMeL]S(tBu)[NMeI][Cys(O)(CH2CO)]-Piperidide; lactam N-9), the microsomal CLint at 1 uM in series [1] came to 36 µL/min/mg.
